Source: PubChem BioAssay (NCI)
Several values for one entry are separate records, joined by “and”; a condition that tells them apart may be missing. Identical values can stand only once.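 These data come from cells grown in 96-well plates and exposed to compound for 48 hours at five concentrations. At the GI50, growth is halved. TGI denotes the concentration required for complete inhibition of growth.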

Key:
Test in all cases: DTP human tumour cell line panel, 48 h
SF-539 CNS = system: SF-539 CNS
KM12 colon = system: KM12 colon
RPMI-8226 leukemia = system: RPMI-8226 leukemia
HOP-62 NSCLC = system: HOP-62 NSCLC
SF-268 CNS = system: SF-268 CNS
SK-MEL-2 melanoma = system: SK-MEL-2 melanoma
NCI-H226 lung = system: NCI-H226 lung
SN12C renal = system: SN12C renal
NCI-H460 lung = system: NCI-H460 lung
CCRF-CEM leukemia = system: CCRF-CEM leukemia

SMILES	GI50 (SF-539 CNS)	TGI (SF-539 CNS)	GI50 (KM12 colon)	TGI (KM12 colon)	GI50 (RPMI-8226 leukemia)	TGI (RPMI-8226 leukemia)	GI50 (HOP-62 NSCLC)	TGI (HOP-62 NSCLC)	GI50 (SF-268 CNS)	TGI (SF-268 CNS)	GI50 (SK-MEL-2 melanoma)	TGI (SK-MEL-2 melanoma)	GI50 (NCI-H226 lung)	TGI (NCI-H226 lung)	GI50 (SN12C renal)	TGI (SN12C renal)	GI50 (NCI-H460 lung)	TGI (NCI-H460 lung)	GI50 (CCRF-CEM leukemia)	TGI (CCRF-CEM leukemia)
COc1ccc2c(O)c(/C=C3\N=Nc4ncccc43)oc2c1C[C@H]1CCNC[C@H]1F	0.252 µM	0.952 µM	0.39 µM	4.79 µM	0.286 µM	1.06 µM	0.409 µM	3.94 µM	0.296 µM	10.4 µM	1.1 µM	3.73 µM	0.16 µM	5.29 µM	0.442 µM	10.6 µM	0.388 µM	1.8 µM	0.227 µM	0.876 µM
c1ccc(CCCNc2nnnc3ccccc23)cc1	–	> 100 µM	–	> 100 µM	–	> 100 µM	–	> 100 µM	–	> 100 µM	–	> 100 µM	–	> 100 µM	–	> 100 µM	–	> 100 µM	–	> 100 µM
Cc1c2cnccc2c(C)c2c1c1cc(C(=O)O)ccc1n2C	1.01 µM	3.27 µM	1.04 µM	6.92 µM	1.26 µM	5.66 µM	0.642 µM	7.52 µM	0.937 µM	4.81 µM	1.38 µM	4.03 µM	0.454 µM	2.47 µM	0.772 µM	10.2 µM	0.874 µM	8.46 µM	1.06 µM	6.6 µM
CCCCCCCCCCCCC/C=C1\C[C@H](O)COC1=O	–	35.8 µM	–	30.1 µM	–	41 µM	–	31.8 µM	–	38 µM	–	31.1 µM	–	32.9 µM	–	28.8 µM	–	33.4 µM	–	36.6 µM
O=C(O)c1c([N+](=O)[O-])cc(C(F)(F)F)cc1[N+](=O)[O-]	–	> 100 µM	–	> 100 µM	–	> 100 µM	–	> 100 µM	–	> 100 µM	–	> 100 µM	–	> 100 µM	–	> 100 µM	–	> 100 µM	–	> 100 µM
O=C1c2ccccc2C(=O)c2c(NC(=O)C(Cl)CCl)cccc21 (stereo not given)	–	11.5 µM	–	8.26 µM	–	2.11 µM	–	23.6 µM	–	25 µM	–	12.2 µM	–	48.3 µM	–	21.4 µM	–	31.1 µM	–	2.38 µM
NC(=O)c1ccc2nc(-c3ccc(C4(N)CCC4)cc3)c(-c3ccccc3)n2n1	2.13 µM	13.7 µM	10.5 µM	25.3 µM	10.9 µM	30.9 µM	11.6 µM	27.7 µM	13.1 µM	30.1 µM	15.2 µM	31.5 µM	12.7 µM	32.5 µM	12 µM	27.5 µM	2.15 µM	19.4 µM	1.41 µM	44.4 µM
CN(C)CCN1C(=O)c2cccc3c(N)ccc(c23)C1=O	9.14 µM	> 25 µM	14.2 µM	> 25 µM	7.71 µM	> 25 µM	22.9 µM	> 25 µM	15 µM	> 25 µM	11.6 µM	> 25 µM	7.69 µM	> 25 µM	10 µM	> 25 µM	7.42 µM	23.8 µM	9.63 µM	> 25 µM
COc1cc(OC)cc(-c2ccc(-c3ccc(C(=N)N)s3)s2)c1	1.24 µM	3.45 µM	0.517 µM and 0.302 µM	2.04 µM and 1.13 µM	0.286 µM and 0.218 µM	0.866 µM and 0.483 µM	1.81 µM	3.47 µM	1.67 µM	3.42 µM	1.62 µM	3.14 µM	1.61 µM	3.71 µM	1.74 µM	4.32 µM	0.482 µM	1.79 µM	1.24 µM and 0.277 µM	2.9 µM and 0.75 µM
Nc1ccc(-c2ccc(Nc3cc(S(=O)(=O)O)c(N)c4c3C(=O)c3ccccc3C4=O)cc2)c(S(=O)(=O)O)c1	–	> 100 µM	–	> 100 µM	–	> 100 µM	–	> 100 µM	–	> 100 µM	–	> 100 µM	–	> 100 µM	–	> 100 µM	–	> 100 µM	–	> 100 µM
CCOc1ccccc1NC(=O)C(=O)C(C(=O)c1ccc2ccccc2c1)C1OC(=O)c2ccccc21 (stereo not given)	–	24.8 µM	–	59.5 µM	–	40 µM	–	31.2 µM	–	53.1 µM	–	29.4 µM	–	7.06 µM	–	37.4 µM	–	52.2 µM	–	69.1 µM
CC(N)(Cc1c[nH]c2ccccc12)C(=O)O (stereo not given)	> 2500 µM	> 2500 µM	> 2500 µM	> 2500 µM	> 2500 µM	> 2500 µM	> 2500 µM	> 2500 µM	> 2500 µM	> 2500 µM	> 2500 µM	> 2500 µM	> 2500 µM	> 2500 µM	> 2500 µM	> 2500 µM	> 2500 µM	> 2500 µM	> 2500 µM	> 2500 µM
COc1cc(/C=C/C(=O)NC[C@]2(O)CCC3C4CCc5cc(O)ccc5C4CCC32C)ccc1O (stereo not given in full)	16.1 µM	> 100 µM	5.68 µM	36 µM	3.16 µM	16.7 µM	26.7 µM	> 100 µM	96.1 µM	> 100 µM	38.8 µM	> 100 µM	35.1 µM	> 100 µM	25.4 µM	> 100 µM	9.47 µM	> 100 µM	3.18 µM	86.1 µM
O=S(=O)(CC#CCCCOCC#Cc1ccccc1C#CCS(=O)(=O)c1ccccc1)c1ccccc1	22.9 µM	45.3 µM	33.2 µM	> 100 µM	11.6 µM	31.4 µM	31.7 µM	> 100 µM	19.6 µM	50.1 µM	23 µM	47.9 µM	16.6 µM	45.7 µM	18.3 µM	40.7 µM	31.2 µM	> 100 µM	3.23 µM	10.2 µM
O=C(CCc1ccco1)NC1CCN(CC2(c3ccc(Cl)cc3)CCC2)CC1	13.4 µM	26.6 µM	15.3 µM	31.5 µM	13.2 µM	35 µM	16.3 µM	32.7 µM	15.1 µM	30.7 µM	16.9 µM	31.7 µM	20.8 µM	60.2 µM	15.4 µM	33.1 µM	15.1 µM	28.4 µM	13.7 µM	49.9 µM
Cc1cc(C(=O)N[C@@H](CCC(=O)O)C(=O)O)sc1CC[C@@H]1CNc2nc(N)[nH]c(=O)c2C1	< 0.01 µM	> 100 µM	0.046 µM	> 100 µM	0.0648 µM	> 100 µM	0.0496 µM	> 100 µM	0.0372 µM	> 100 µM	7.78 µM	> 100 µM	< 0.0245 µM	> 100 µM	0.0253 µM	> 100 µM	< 0.0119 µM	> 100 µM	0.0316 µM	> 100 µM
COc1ccc(N2CCN(CN3CCN(c4ccc(OC)cc4)C3)C2)cc1	> 100 µM	> 100 µM	> 100 µM	> 100 µM	32.6 µM	> 100 µM	81.5 µM	> 100 µM	> 100 µM	> 100 µM	> 100 µM	> 100 µM	> 100 µM	> 100 µM	> 100 µM	> 100 µM	> 100 µM	> 100 µM	33.4 µM	> 100 µM
